What was measured:
[1] = system: UM-SCC19 Head and Neck Cancer cell line; experiment: MTT assay, Bouvardin with ionizing radiation, UM-SCC19 (pre-treated); format: cell-based, human; conditions: UM-SCC19 cells
Procedure: “Combination Index” computation. Combination Indices were calculated using CalcuSyn software (Biosoft), which uses the method of Chou and Talalay. This method first computes drug-induced effect using the Hill Equation: where E is the measured effect; C is the drug concentration; Emax is the full range of drug effect, usually at or near 100%; IC50 is the drug concentration producing the median effect of 50%; and n is the curve shape parameter describing the steepness of the concentration-effect relationship. The Chou and Talalay method then linearizes the Hill Equation by logarithmic transformation as: where fu is the fraction of cells left unaffected after drug exposure, fa is the fraction of cells affected by the exposure, C is the drug concentration used, Cm is the concentration to achieve the median effect, and n is the curve shape parameter. Cm and n are equivalent to IC50 and n, respectively, in the Hill Equation. The values of n (obtained from the slope), nlog(Cm) (obtained from the absolute value of the intercept), and, therefore, Cm are obtained by plotting log(fu−1−1) versus log(C). These numbers are then used to compute the Combination Index (CI) according to the formula: CI=(D)1/(Dx)1+(D)2/(Dx)2 (26). (Dx)1 and (Dx)2 are the doses required to achieve a given effect level for each treatment, i.e. a specified value of Fraction Affected or Fa. (D)1 and (D)2 are the doses of each treatment in a given combination which gives the same Fa.
The growth inhibitory effects of Bouvardin with ionizing radiation (IR) were evaluated using a modified tetrazolium salt (MTT) assay. In the MTT assay, 1,000 to 2,000 viable cells were plated in 100 uL of growth medium in 96-well plates (Corning, Ithaca, N.Y.). Following an overnight incubation, drug was added in varying concentrations and the plates were irradiated on the same day (co-treatment) or 24 hr later (pre-treatment) and incubated for 6 to 7 days. The tetrazolium salt was added at a concentration of 0.4 mg/mL to each well following the 6- to 7-day treatment. The plates were incubated with the salt for 4 hours at 37° C. At 4 hours, the medium was aspirated off, leaving the dark blue formazan product at the bottom of the wells. The reduced MTT product was solubilized by adding […] of 0.2 N HCl in 75% isopropanol, 23% MilliQ water to each well. Thorough mixing was done using a Titertek multichannel pipetman. The absorbency of each well was measured using an automated plate reader (Molecular Devices, Sunnyvale, Calif.). All experiments were done in triplicate.
MTT assays were used to determine the effect of Bouvardin (concentrations in uM) in combination with ionizing radiation (in Gy, X-axis). FIG. 14 depicts CI values for Bouvardin and radiation on 3 cell lines. Combination Index data from 3 different Head and Neck Cancer cell lines are shown. Black dashed lines represent a CI value of 1. CI values below 1 indicate synergy. 1586 and UM-SCC19 were pre-treated whereas HN31 was treated on the same day.

[2] = system: Drosophila; experiment: Sensitizing flies to ionizing radiation (FIG. 7); format: in vivo
Description: Bouvardin derivatives are depicted in FIG. 4 as a generic Formula III, with the specific derivative used in this example having R1=COOCH3, R2=OCH3, R3=H, R4=Boc, R5=CH3.
Feeding stage 3rd instar larvae were irradiated as previously described (2). Briefly, 120 hr old larvae were rinsed to remove food and passed through sizing sieves to obtain animals of uniform size. Larvae were placed in a Petri dish and irradiated using a TORREX X-ray generator, set at 115 kV and 5 mA (producing 2.4 Rads/sec or 1.44 Gy/min) Irradiated larvae were then cultured on cornmeal-agar media (2) containing drug or DMSO carrier. In all experiments using human cells, cells in 96-well plates were irradiated with a RS2000 Biological Irradiator (Rad Source Technologies, Inc.) delivering 1 Gy/min.

Question: Which results are given for COc1ccc(C[C@H]2C(=O)N[C@H](C)C(=O)N(C)[C@@H]3C(=O)N(C)[C@@H](Cc4ccc(O)c(c4)Oc4ccc(cc4)[C@H]3O)C(=O)N[C@@H](C)C(=O)N[C@H](C)C(=O)N2C)cc1 (stereo in doubt) [Bouvardin, bouvardin]?
Answer: Combination Index ([1]; Bouvardin 0.001 uM + 1 Gy IR): 13.885; Fraction Affected ([1]; Bouvardin 0.001 uM + 1 Gy IR): 0.143; Combination Index ([1]; Bouvardin 0.001 uM + 2 Gy IR): 2.245; Fraction Affected ([1]; Bouvardin 0.001 uM + 2 Gy IR): 0.28; Combination Index ([1]; Bouvardin 0.001 uM + 4 Gy IR): 1.023; Fraction Affected ([1]; Bouvardin 0.001 uM + 4 Gy IR): 0.386; Combination Index ([1]; Bouvardin 0.003 uM + 1 Gy IR): 5.143; Fraction Affected ([1]; Bouvardin 0.003 uM + 1 Gy IR): 0.227; Combination Index ([1]; Bouvardin 0.003 uM + 2 Gy IR): 1.22; Fraction Affected ([1]; Bouvardin 0.003 uM + 2 Gy IR): 0.366; Combination Index ([1]; Bouvardin 0.003 uM + 4 Gy IR): 0.627; Fraction Affected ([1]; Bouvardin 0.003 uM + 4 Gy IR): 0.466; Combination Index ([1]; Bouvardin 0.006 uM + 1 Gy IR): 1.696; Fraction Affected ([1]; Bouvardin 0.006 uM + 1 Gy IR): 0.354; Combination Index ([1]; Bouvardin 0.006 uM + 2 Gy IR): 0.762; Fraction Affected ([1]; Bouvardin 0.006 uM + 2 Gy IR): 0.448; Combination Index ([1]; Bouvardin 0.006 uM + 4 Gy IR): 0.82; Fraction Affected ([1]; Bouvardin 0.006 uM + 4 Gy IR): 0.461; Combination Index ([1]; Bouvardin 0.01 uM + 1 Gy IR): 1.561; Fraction Affected ([1]; Bouvardin 0.01 uM + 1 Gy IR): 0.395; Combination Index ([1]; Bouvardin 0.01 uM + 2 Gy IR): 0.694; Fraction Affected ([1]; Bouvardin 0.01 uM + 2 Gy IR): 0.49; Combination Index ([1]; Bouvardin 0.01 uM + 4 Gy IR): 0.619; Fraction Affected ([1]; Bouvardin 0.01 uM + 4 Gy IR): 0.521; Combination Index ([1]; Bouvardin 0.03 uM + 1 Gy IR): 1.414; Fraction Affected ([1]; Bouvardin 0.03 uM + 1 Gy IR): 0.44; Combination Index ([1]; Bouvardin 0.03 uM + 2 Gy IR): 0.777; Fraction Affected ([1]; Bouvardin 0.03 uM + 2 Gy IR): 0.511; Combination Index ([1]; Bouvardin 0.03 uM + 4 Gy IR): 0.848; Fraction Affected ([1]; Bouvardin 0.03 uM + 4 Gy IR): 0.515; Combination Index ([1]; Bouvardin 0.06 uM + 1 Gy IR): 1.587; Fraction Affected ([1]; Bouvardin 0.06 uM + 1 Gy IR): 0.431; Combination Index ([1]; Bouvardin 0.06 uM + 2 Gy IR): 1.482; Fraction Affected ([1]; Bouvardin 0.06 uM + 2 Gy IR): 0.444; Combination Index ([1]; Bouvardin 0.06 uM + 4 Gy IR): 1.01; Fraction Affected ([1]; Bouvardin 0.06 uM + 4 Gy IR): 0.498; Combination Index ([1]; Bouvardin 0.1 uM + 1 Gy IR): 2.102; Fraction Affected ([1]; Bouvardin 0.1 uM + 1 Gy IR): 0.437; Combination Index ([1]; Bouvardin 0.1 uM + 2 Gy IR): 1.027; Fraction Affected ([1]; Bouvardin 0.1 uM + 2 Gy IR): 0.518; Combination Index ([1]; Bouvardin 0.1 uM + 4 Gy IR): 1.691; Fraction Affected ([1]; Bouvardin 0.1 uM + 4 Gy IR): 0.473; Combination Index ([1]; Bouvardin 0.3 uM + 1 Gy IR): 1.313; Fraction Affected ([1]; Bouvardin 0.3 uM + 1 Gy IR): 0.523; Combination Index ([1]; Bouvardin 0.3 uM + 2 Gy IR): 1.347; Fraction Affected ([1]; Bouvardin 0.3 uM + 2 Gy IR): 0.524; Combination Index ([1]; Bouvardin 0.3 uM + 4 Gy IR): 1.052; Fraction Affected ([1]; Bouvardin 0.3 uM + 4 Gy IR): 0.558; Combination Index ([1]; Bouvardin 0.6 uM + 1 Gy IR): 1.704; Fraction Affected ([1]; Bouvardin 0.6 uM + 1 Gy IR): 0.532; Combination Index ([1]; Bouvardin 0.6 uM + 2 Gy IR): 1.546; Fraction Affected ([1]; Bouvardin 0.6 uM + 2 Gy IR): 0.545; Combination Index ([1]; Bouvardin 0.6 uM + 4 Gy IR): 1.251; Fraction Affected ([1]; Bouvardin 0.6 uM + 4 Gy IR): 0.573; Combination Index ([1]; Bouvardin 1 uM + 1 Gy IR): 13.885; Fraction Affected ([1]; Bouvardin 1 uM + 1 Gy IR): 0.143; Combination Index ([1]; Bouvardin 1 uM + 2 Gy IR): 2.245; Fraction Affected ([1]; Bouvardin 1 uM + 2 Gy IR): 0.28; Combination Index ([1]; Bouvardin 1 uM + 4 Gy IR): 1.023; Fraction Affected ([1]; Bouvardin 1 uM + 4 Gy IR): 0.386; observed effect of drug with radiation versus additive effect [2]: exceeds additive effect of drug and radiation
